Test results reported in patent US20140212401A1, “USE OF SYNTHETIC AND BIOLOGICAL FUNGICIDES IN COMBINATION FOR CONTROLLING HARMFUL FUNGI” (Bayer CropScience LP, priority 2009, published 2014).

Experiments:
[1] = system: Pseudoperonospora cubensis; assay: Example 4: inoculated cucurbits, spray treatments, visual % infection of leaves; format: in vivo; conditions: 28 days after first treatment
From the text: The results are compiled in Table 4 below. [table]

Bremia lactucae = assay: Example 23: inoculated lettuce, spray treatments, visual % infection of plant; conditions: Boscalid (CANTUS 1 kg/ha) applications AB
Procedure: (§1) Evaluation was carried out by visually determining the infected leaf areas in %.
The test plants were inoculated with an aqueous spore suspension of Bremia lactucae. […] For comparison, a part of the plants was sprayed with boscalid alone (used as the commercial product CANTUS®, BASF; dose rate per treatment: 1 kg/ha; diluted with water to 500 L/ha). […] 7 days after the last treatment, the extent of the development of the disease was determined visually in % infection of the plant.

Monilinia laxa = assay: Example 7: inoculated stonefruit, spray treatments, visual % infection of plant
Procedure: as §1
Stonefruit was grown under standard conditions with adequate supply of water and nutrients. The test plants were inoculated with an aqueous spore suspension of Monilinia laxa. […] Another part was sprayed both with boscalid and B. subtilis strain QST713. 5 and 11 days after the first treatment (0 or 6 days after last treatment), the extent of the development of the disease was determined visually in % infection of the plant.

Botrytis cinerea = assay: Example 1: inoculated vine grapes cv. Riesling, spray treatments, visual % infection of racemes
Procedure: as §1
Vine grapes of the cultivar “Riesling” were grown under standard conditions with adequate supply of water and nutrients. The test plants were inoculated with an aqueous spore suspension of Botrytis cinerea. […] For comparison, a part of the plants was sprayed with boscalid alone (used as the commercial product CANTUS®, BASF; dose rate per treatment: 1.2 kg/ha; diluted with water to 800 L/ha). […] 95 and 100 days after the first treatment (25 or 30 days after last treatment), the extent of the development of the disease was determined visually in % infection of the racemes.

Sclerotinia sclerotiorum = assay: Example 11: inoculated beans, spray treatments, visual % infection of plants; conditions: Boscalid (CANTUS 1.0 kg/ha) application A
Procedure: as §1
Beans were cultivated and grown under standard conditions with adequate supply of water and nutrients. The test plants were inoculated with an aqueous spore suspension of Sclerotinia sclerotiorum. […] For comparison, a part of the plants was sprayed with boscalid alone (used as the commercial product CANTUS®, BASF; dose rate per treatment: 1.0 kg/ha; diluted with water to 500 L/ha). […] 28 and 35 days after the first treatment (0 or 7 days after last treatment), the extent of the development of the disease was determined visually in % infection of the plants.

[2] = system: Botrytis cinirea (BOTRCI); assay: Example 16: field trial grapevine cv. Müller-Thurgau, natural infection, percent infected clusters
Procedure: The trial was conducted under field conditions. Established grapevine plants (cv. Müller-Thurgau) were grown under standard conditions with adequate supply of water and nutrients. The application was repeated 4 to 9 times (see below) with 7-14 days intervals applying single products. No other products or compounds were applied for pathogen control. […] For comparison, a part of the plants was sprayed with dithianon alone (used as the commercial product DELAN®, Bayer CropScience; 0.75 kg/ha). […] BOTRCI infection occurred naturally. Disease incidences were evaluated 21 days after 9th application (21 DAT(9)). Disease levels observed were rated in percent infected clusters in the respective plot given as % attack.

[3] = system: Plasmopara viticola (PLASVI); assay: Example 17: field trial grapevine cv. Müller-Thurgau, natural infection, percent infected leaf area and clusters; conditions: for Attacked Leaf Area/Clusters 10 DAA(7): percent infected clusters; for Attacked Leaf Area/Clusters 4 DAA(9): percent infected leaf area
Procedure: The trial was conducted under field conditions. Established grapevine plants (cv. Müller-Thurgau) were grown under standard conditions with adequate supply of water and nutrients.
The application was repeated 4 to 9 times (see below) with 7-14 days intervals applying single products. No other products or compounds were applied for pathogen control. […] For comparison, a part of the plants was sprayed with dithianon alone (used as the commercial product DELAN®, Bayer CropScience; 0.75 kg/ha). […] Another part was sprayed both with dithianon and B. subtilis strain QST713. PLASVI infection occurred naturally. Disease incidences were evaluated 10 days after 7th application (10 DAA(7)) and 4 days after 9th application (4 DAA(9)). Disease levels observed were rated in percent infected leaf area (4 DAA(9)) and in percent infected clusters (10 DAA(7)) in the respective plot given as % attack.

[4] = system: Venturia inequalis (VENTIN); assay: Example 18: field trial apple cv. Rubinette, natural infection, percent infected leaf area
Procedure: The trial was conducted under field conditions. Established apple plants (cv. Rubinette) were grown under standard conditions with adequate supply of water and nutrients. The application was repeated 6 to 10 times (see below) with 7-14 days intervals applying single products or product mixtures. No other products or compounds were applied for pathogen control. […] VENTIN infection occurred naturally. Disease incidences were evaluated 6 days after 10th application (6 DAT(10)). Disease levels observed were rated in percent infected leaf area in the respective plot given as % attack.

Plasmopara viticola = assay: Example 3: inoculated vine grapes, spray treatments, visual % infection of racemes and leaves, severity and frequency; conditions: Dithianon (DELAN WG 525 g/ha) applications ABCDEFGHI
Procedure: as §1
The test plants were inoculated with an aqueous spore suspension of Plasmopara viticola. […] Another part was sprayed both with dithianon and B. subtilis strain QST713. 67 and 73 days after the first treatment (4 or 10 days after last treatment), the extent of the development of the disease was determined visually in % infection of the racemes. 73 days after the first treatment (10 days after last treatment), the severity and the frequency of the infection on the racemes were determined visually [%]. 87 days after the first treatment (14 days after last treatment), the extent of the development of the disease was determined visually in % infection of the leaves.

Leveillula taurica = assay: Example 10: inoculated peppers, spray treatments, visual % infection of leaves; conditions: Metrafenone (VIVANDO 0.2 L/ha) applications AB
Procedure: as §1
The test plants were inoculated with an aqueous spore suspension of Leveillula taurica. […] For comparison, a part of the plants was sprayed with metrafenone alone (used as the commercial product VIVANDO®, BASF; dose rate per treatment: 0.2 L/ha; diluted with water to 800 L/ha). […] 35 and 42 days after the first treatment (7 or 14 days after last treatment), the extent of the development of the disease was determined visually in % infection of the leaves.

Sphaerotheca fuliginea [5] = assay: Example 27: inoculated cucumbers, spray treatments, visual % infection of leaves; conditions: 38 days after first treatment; Metrafenone (VIVANDO 0.3 L/ha) applications ABC
Procedure: as §1
Cucumbers were cultivated and grown under standard conditions with adequate supply of water and nutrients. The test plants were inoculated with an aqueous spore suspension of Sphaerotheca fuliginea. […] For comparison, a part of the plants was sprayed metrafenone alone (used as the commercial product VIVANDO®, BASF; dose rate per treatment: 0.3 L/ha; diluted with water to 500 L/ha). […] 38 days after the first treatment, the extent of the development of the disease was determined visually in % infection of the leaves.

Sphaerotheca fuliginea [6] = assay: Example 9: inoculated melons, spray treatments, visual % infection of plant
Procedure: as §1
Melons were cultivated and grown under standard conditions with adequate supply of water and nutrients. The test plants were inoculated with an aqueous spore suspension of Sphaerotheca fuliginea. […] For comparison, a part of the plants was sprayed with metrafenone alone (used as the commercial product VIVANDO®, BASF; dose rate per treatment: 0.2 L/ha; diluted with water to 500 L/ha). […] 27 and 34 days after the first treatment (1 or 8 days after last treatment), the extent of the development of the disease was determined visually in % infection of the plant.

Uncinula necator [7] = assay: Example 13: inoculated grapes, spray treatments, visual % infection of raceme and leaves; format: in vivo
From the text: The results are compiled in Table 13 below.

Uncinula necator [8] = assay: Example 2: inoculated vine grapes, spray treatments, visual % infection of racemes
Procedure: Vine grapes were grown under standard conditions with adequate supply of water and nutrients. The test plants were inoculated with an aqueous spore suspension of Uncinula necator. […] For comparison, a part of the plants was sprayed with metrafenone alone (used as the commercial product VIVANDO®, BASF; dose rate per treatment: 0.02 Vol.-%; diluted with water to 800 L/ha). […] 85 and 91 days after the first treatment (15 or 21 days after last treatment), the extent of the development of the disease was determined visually in % infection of the racemes.

Erysiphe necator = assay: Example 29: inoculated grapes, spray treatments, visual % infection of clusters; conditions: Metrafenone (VIVANDO 0.27 L/ha) applications ABCD
Procedure: Grapes were grown under standard conditions with adequate supply of water and nutrients. The test plants were inoculated with an aqueous spore suspension of Erysiphe necator. […] For comparison, a part of the plants was sprayed with metrafenone alone (used as the commercial product VIVANDO®, BASF; dose rate per treatment: 0.27 L/ha; diluted with water to 800 L/ha). […] 11 days after the 6th application, the extent of the development of the disease was determined visually in % infection of the clusters.

Sphaerotheca fuliginea [9] = assay: Example 12: inoculated cucurbits, spray treatments, visual % infection of upperside of leaves; format: in vivo; conditions: 38 days after first treatment, Metrafenone (VIVANDO 0.2 L/ha) applications ABC
From the text: The results are compiled in Table 12 below.

[10] = system: Erysiphe necator (UNCINE); assay: Example 15: field trial grapevine cv. Müller-Thurgau, natural infection, percent infected clusters
Procedure: The trial was conducted under field conditions. Established grapevine plants (cv. Müller-Thurgau) were grown under standard conditions with adequate supply of water and nutrients. The application was repeated 3 to 6 times (see below) with 14 days intervals applying single products. No other products or compounds were applied for pathogen control. […] For comparison, a part of the plants was sprayed with metrafenone alone (used as the commercial product VIVANDO®, BASF; 0.2 L/ha). […] UNCINE infection occurred naturally. Disease incidences were evaluated 6 days after 5th application (6 DAT(5)) and 15 days after 6th application (15 DAT(6)). Disease levels observed were rated in percent infected clusters in the respective plot given as % attack.

Cercospora beticola = assay: Example 8: inoculated sugar beets, spray treatments, visual % infection of plant
Procedure: as §1
Sugar beets were cultivated and grown under standard conditions with adequate supply of water and nutrients. The test plants were inoculated with an aqueous spore suspension of Cercospora beticola. […] For comparison, a part of the plants was sprayed with pyraclostrobin alone (used as the commercial product HEADLINE®, BASF; dose rate per treatment: 0.6 L/ha; diluted with water to 400 L/ha). […] 46 and 53 days after the first treatment (7 or 14 days after last treatment), the extent of the development of the disease was determined visually in % infection of the plant.

[11] = Boscalid application A (pyraclostrobin/boscalid mixture PRISTINE 0.66 g/ha)
[12] = Boscalid applications AB (pyraclostrobin/boscalid mixture PRISTINE 0.66 g/ha)
[13] = Boscalid (CANTUS 1.2 kg/ha) applications AB
[14] = Boscalid (CANTUS 1.2 kg/ha) applications ABC
[15] = Dithianon (DELAN 0.75 kg/ha) applications ABCD
[16] = Dithianon (DELAN 0.75 kg/ha) applications ABCDEFGHI
[17] = Metrafenone (VIVANDO 0.2 L/ha) application A
[18] = Metrafenone (VIVANDO 0.2 L/ha) applications AB
[19] = Metrafenone (VIVANDO 0.2 L/ha) applications ABCDE
[20] = Metrafenone (VIVANDO 0.2 L/ha) applications ABCDEFG
[21] = Metrafenone (VIVANDO 0.02 Vol.-%) applications ABC
[22] = Metrafenone (VIVANDO 0.02 Vol.-%) applications ABCD
[23] = Metrafenone (VIVANDO 0.2 L/ha) applications ABC
[24] = Metrafenone (VIVANDO 0.2 L/ha) applications ABCDEF
[25] = Pyraclostrobin (HEADLINE 0.6 L/ha) application A
[26] = Pyraclostrobin (HEADLINE 0.6 L/ha) applications AB
[27] = Pyraclostrobin (HEADLINE 0.6 L/ha) applications ABC

For `CCCCCCCCc1c(CC)nc2ncnn2c1N` [BAS 650, 5-ethyl-6-octyl-[1,2,4]triazolo[1,5-a]pyrimidine-7-ylamine], the “Attack on Leaves” value ([1]; BAS 650 (BAS 650 00F 1.2 L/ha) applications AB) was 7% and the “Attack on Leaves” value ([1]; BAS 650 (BAS 650 00F 1.2 L/ha) applications ABC) was 6.2%.
`O=C(Nc1ccccc1-c1ccc(Cl)cc1)c1cccnc1Cl` [Boscalid, boscalid] was tested, and the “Attack on Plant 7 DALT” value (Bremia lactucae) was 14%, the “Attack on Plant 5 DAT” value (Monilinia laxa; [11]) was 1.8% and the “Attack on Plant 11 DAT” value (Monilinia laxa; [11]) was 36%. The “Attack on Plant 5 DAT” value (Monilinia laxa; [12]) was 1.8%, the “Attack on Plant 11 DAT” value (Monilinia laxa; [12]) was 29% and the “Attack on Raceme 95 DAT” value (Botrytis cinerea; [13]) was 35%. The “Attack on Raceme 100 DAT” value (Botrytis cinerea; [13]) was 44%, the “Attack on Raceme 95 DAT” value (Botrytis cinerea; [14]) was 28% and the “Attack on Raceme 100 DAT” value (Botrytis cinerea; [14]) was 36%. For the same compound, the “Attack on Plant 28 DAT” value (Sclerotinia sclerotiorum) was 30% and the “Attack on Plant 35 DAT” value (Sclerotinia sclerotiorum) was 53%.
`N#Cc1sc2c(=O)c3ccccc3c(=O)c=2sc1C#N` [Dithianon, dithianon] was tested, and the “Attacked Clusters 21 DAT(9)” value [2, 15] was 12%, the “Attacked Clusters 21 DAT(9)” value [2, 16] was 15% and the “Attacked Leaf Area/Clusters 10 DAA(7)” value [3, 15] was 30%. The “Attacked Leaf Area/Clusters 10 DAA(7)” value [3, 16] was 25%, the “Attacked Leaf Area/Clusters 4 DAA(9)” value [3, 15] was 11% and the “Attacked Leaf Area/Clusters 4 DAA(9)” value [3, 16] was 7.5%. The “Attacked Leaf Area 6 DAT10” value ([4]; Dithianon (DELAN 0.75 kg/ha) applications ABCDEF) was 12%, the “Attacked Leaf Area 6 DAT10” value ([4]; Dithianon (DELAN 0.75 kg/ha) applications ABCDEFGHIJ) was 7.3% and the “Attack on Leaves 87 DAT” value (Plasmopara viticola) was 25%. For the same compound, the “Attack on Raceme 67 DAT” value (Plasmopara viticola) was 34%, the “Attack on Raceme 73 DAT” value (Plasmopara viticola) was 48% and the “Frequency 73 DAT” value (Plasmopara viticola; infection on racemes) was 37%. The “Severity 73 DAT” value (Plasmopara viticola; infection on racemes) was 7.5%.
For `COc1cc(C)c(C(=O)c2c(OC)ccc(Br)c2C)c(OC)c1OC` [Metrafenone, metrafenone], the “Attack on Plant 35 DAT” value (Leveillula taurica) was 22%, the “Attack on Plant 42 DAT” value (Leveillula taurica) was 43% and the “Attack on Leaves” value (Sphaerotheca fuliginea [5]) was 15%. The “Attack on Plant 27 DAT” value (Sphaerotheca fuliginea [6]; [17]) was 24%, the “Attack on Plant 34 DAT” value (Sphaerotheca fuliginea [6]; [17]) was 32% and the “Attack on Plant 27 DAT” value (Sphaerotheca fuliginea [6]; [18]) was 9.2%. For the same compound, the “Attack on Plant 34 DAT” value (Sphaerotheca fuliginea [6]; [18]) was 14%, the “Attack on Leaves 76 DAT” value (Uncinula necator [7]; [19]) was 4.3% and the “Attack on Leaves 90 DAT” value (Uncinula necator [7]; [19]) was 35%. For the same compound, the “Attack on Raceme 76 DAT” value (Uncinula necator [7]; [19]) was 8.3%, the “Attack on Raceme 90 DAT” value (Uncinula necator [7]; [19]) was 43% and the “Attack on Leaves 76 DAT” value (Uncinula necator [7]; [20]) was 3.0%. For the same compound, the “Attack on Leaves 90 DAT” value (Uncinula necator [7]; [20]) was 13%, the “Attack on Raceme 76 DAT” value (Uncinula necator [7]; [20]) was 6.0% and the “Attack on Raceme 90 DAT” value (Uncinula necator [7]; [20]) was 22%. The “Attack on Raceme 85 DAT” value (Uncinula necator [8]; [21]) was 26%, the “Attack on Raceme 91 DAT” value (Uncinula necator [8]; [21]) was 32% and the “Attack on Raceme 85 DAT” value (Uncinula necator [8]; [22]) was 11%. The “Attack on Raceme 91 DAT” value (Uncinula necator [8]; [22]) was 14%, the “Attack on clusters 11 DAA (6)” value (Erysiphe necator) was 25% and the “Attack on Leaves” value (Sphaerotheca fuliginea [9]) was 50%. The “Attacked Clusters 6 DAT(5)” value [10, 23] was 7.9%, the “Attacked Clusters 15 DAT(6)” value [10, 23] was 26% and the “Attacked Clusters 6 DAT(5)” value [10, 24] was 2.2%. For the same compound, the “Attacked Clusters 15 DAT(6)” value [10, 24] was 4.2%.
`COC(=O)N(OC)c1ccccc1COc1ccn(-c2ccc(Cl)cc2)n1` [Pyraclostrobin, pyraclostrobin] was tested, and the “Attack on Plant 46 DAT” value (Cercospora beticola; [25]) was 11%, the “Attack on Plant 53 DAT” value (Cercospora beticola; [25]) was 17% and the “Attack on Plant 46 DAT” value (Cercospora beticola; [26]) was 4.7%. The “Attack on Plant 53 DAT” value (Cercospora beticola; [26]) was 5.7%, the “Attack on Plant 46 DAT” value (Cercospora beticola; [27]) was 2.7% and the “Attack on Plant 53 DAT” value (Cercospora beticola; [27]) was 3.7%.
